Data as given in patent EP4553080A1, “NUCLEOSIDE DERIVATIVES AS ANTIVIRAL AGENTS AGAINST CORONAVIRUSES” (Ustav Organicke Chemie a Biochemie AV CR, v.v.i., priority 2023, dated 2025).

target: nsp14 methyltransferase from SARS-CoV-2 (Severe acute respiratory syndrome coronavirus 2, UniProt P0DTD1); experiment: Nsp14 MTase activity inhibition in vitro (EchoMS assay); format: biochemical; conditions: recombinant nsp14 protein expressed in E. coli; dose-response curve

| SMILES | IC50 [nM] |
| --- | --- |
| Cc1cncc(-c2ccccc2)c1CSC[C@H]1O[C@@H](n2ccc3c(N)ncnc32)[C@H](O)[C@@H]1O [Compound 57c, (2R,3R,4S,5S)-2-(4-Amino-7H-pyrrolo[2,3-d]pyrimidin-7-yl)-5-((((3-methyl-5-phenylpyridin-4-yl)methyl)thio)methyl)tetrahydrofuran-3,4-diol] | 30 to 100 |
| Cc1ccc(-c2onc(C)c2CSC[C@H]2O[C@@H](n3cc(-c4ccc(C#N)cc4)c4c(N)ncnc43)[C@H](O)[C@@H]2O)cc1C [Compound 235b, 4-(4-Amino-7-((2R,3R,4S,5S)-5-((((5-(3,4-dimethylphenyl)-3-methylisoxazol-4-yl)methyl)thio)methyl)-3,4-dihydroxytetrahydrofuran-2-yl)-7H-pyrrolo[2,3-d]pyrimidin-5-yl)benzonitrile] | 30 to 100 |
| Cc1noc(-c2ccccc2)c1CSC[C@H]1O[C@@H](n2ccc3c(N)nc(Cl)nc32)[C@H](O)[C@@H]1O [Compound 204, (2R,3R,4S,5S)-2-(4-Amino-2-chloro-7H-pyrrolo[2,3-d]pyrimidin-7-yl)-5-((((3-methyl-5-phenylisoxazol-4-yl)methyl)thio)methyl)tetrahydrofuran-3,4-diol] | 10 to 30 |
| Cc1noc(-c2ccc(N)cc2)c1CSC[C@H]1O[C@@H](n2ccc3c(N)ncnc32)[C@H](O)[C@@H]1O [Compound 111, (2R,3R,4S,5S)-2-(4-Amino-7H-pyrrolo[2,3-d]pyrimidin-7-yl)-5-((((5-(4-aminophenyl)-3-methylisoxazol-4-yl)methyl)thio)methyl)tetrahydrofuran-3,4-diol] | 30 to 100 |
| Cc1n[nH]c(-c2ccccc2)c1CSC[C@H]1O[C@@H](n2ccc3c(N)ncnc32)[C@H](O)[C@@H]1O [Compound 51c, (2R,3R,4S,5S)-2-(4-Amino-7H-pyrrolo[2,3-d]pyrimidin-7-yl)-5-((((3-methyl-5-phenyl-1H-pyrazol-4-yl)methyl)thio)methyl)tetrahydrofuran-3,4-diol] | 100 to 500 |
| Cc1noc(-c2ccccc2)c1CSC[C@H]1O[C@@H](n2cc(C#Cc3ccc(C(N)=O)cc3)c3c(N)ncnc32)[C@H](O)[C@@H]1O [Compound 169b, 4-((4-Amino-7-((2R,3R,4S,5S)-3,4-dihydroxy-5-((((3-methyl-5-phenylisoxazol-4-yl)methyl)thio)methyl)tetrahydrofuran-2-yl)-7H-pyrrolo[2,3-d]pyrimidin-5-yl)ethynyl)benzamide] | 30 to 100 |
| Cc1noc(-c2ccccc2)c1CSC[C@H]1O[C@@H](n2nc(CCCC#N)c3c(N)ncnc32)[C@H](O)[C@@H]1O [Compound 223b, 4-(4-Amino-1-((2R,3R,4S,5S)-3,4-dihydroxy-5-((((3-methyl-5-phenylisoxazol-4-yl)methyl)thio)methyl)tetrahydrofuran-2-yl)-1H-pyrazolo[3,4-d]pyrimidin-3-yl)butanenitrile] | 30 to 100 |
| CCC(C)c1cn([C@@H]2O[C@H](CSCc3c(C)noc3-c3ccccc3)[C@@H](O)[C@H]2O)c2ncnc(N)c12 (stereo partly drawn) [Compound 130b, (2R,3R,4S,5S)-2-(4-Amino-5-(sec-butyl)-7H-pyrrolo[2,3-d]pyrimidin-7-yl)-5-((((3-methyl-5-phenylisoxazol-4-yl)methyl)thio)methyl)tetrahydrofuran-3,4-diol] | 100 to 500 |
| Cc1noc(-c2ccc3c(c2)OCO3)c1CSC[C@H]1O[C@@H](n2ccc3c(N)ncnc32)[C@H](O)[C@@H]1O [Compound 96c, (2R,3R,4S,5S)-2-(4-Amino-7H-pyrrolo[2,3-d]pyrimidin-7-yl)-5-((((5-(benzo[d][1,3]dioxol-5-yl)-3-methylisoxazol-4-yl)methyl)thio)methyl)tetrahydrofuran-3,4-diol] | 10 to 30 |
| Cc1ncn(-c2ccccc2)c1CSC[C@H]1O[C@@H](n2ccc3c(N)ncnc32)[C@H](O)[C@@H]1O [Compound 61c, (2R,3R,4S,5S)-2-(4-Amino-7H-pyrrolo[2,3-d]pyrimidin-7-yl)-5-((((4-methyl-1-phenyl-1H-imidazol-5-yl)methyl)thio)methyl)tetrahydrofuran-3,4-diol] | 100 to 500 |
| Cc1noc(-c2ccccc2)c1CSC[C@H]1O[C@@H](n2cc(CC(C)C)c3c(N)ncnc32)[C@H](O)[C@@H]1O [Compound 131b, (2R,3R,4S,5S)-2-(4-Amino-5-isobutyl-7H-pyrrolo[2,3-d]pyrimidin-7-yl)-5-((((3-methyl-5-phenylisoxazol-4-yl)methyl)thio)methyl)tetrahydrofuran-3,4-diol] | 100 to 500 |
| C=Cc1cn([C@@H]2O[C@H](CSCc3c(C)noc3-c3ccccc3)[C@@H](O)[C@H]2O)c2ncnc(N)c12 [Compound 139b, (2R,3R,4S,5S)-2-(4-Amino-5-vinyl-7H-pyrrolo[2,3-d]pyrimidin-7-yl)-5-((((3-methyl-5-phenylisoxazol-4-yl)methyl)thio)methyl)tetrahydrofuran-3,4-diol] | 500 to 2000 |
| Cc1noc(-c2ccccc2)c1CSC[C@H]1O[C@@H](n2cc(-c3ccc4nc[nH]c4c3)c3c(N)ncnc32)[C@H](O)[C@@H]1O [Compound 151, (2R,3R,4S,5S)-2-(4-Amino-5-(1H-benzo[d]imidazol-6-yl)-7H-pyrrolo[2,3-d]pyrimidin-7-yl)-5-((((3-methyl-5-phenylisoxazol-4-yl)methyl)thio)methyl)tetrahydrofuran-3,4-diol] | 30 to 100 |
| Cc1noc(-c2ccccc2)c1CSC[C@H]1O[C@@H](n2cc(C(C)C)c3c(N)ncnc32)[C@H](O)[C@@H]1O [Compound 129b] | 100 to 500 |
| Cc1noc(-c2cscn2)c1CSC[C@H]1O[C@@H](n2ccc3c(N)ncnc32)[C@H](O)[C@@H]1O [Compound 101c, (2R,3R,4S,5S)-2-(4-Amino-7H-pyrrolo[2,3-d]pyrimidin-7-y1)-5-((((3-methyl-5-(thiazol-4-y1)isoxazo1-4-yl)methyl)thio)methyl)tetrahydrofuran-3,4-diol] | 30 to 100 |
| Cc1nsc(-c2ccccc2)c1CSC[C@H]1O[C@@H](n2ccc3c(N)ncnc32)[C@H](O)[C@@H]1O [Compound 54c, (2R,3R,4S,5S)-2-(4-Amino-7H-pyrrolo[2,3-d]pyrimidin-7-yl)-5-((((3-methyl-5-phenylisothiazol-4-yl)methyl)thio)methyl)tetrahydrofuran-3,4-diol] | 30 to 100 |
| Cc1noc(-c2ccccc2)c1CSC[C@H]1O[C@@H](n2cc(CCc3ccccc3)c3c(N)ncnc32)[C@H](O)[C@@H]1O [Compound 184, (2R,3R,4S,5S)-2-(4-Amino-5-phenethyl-7H-pyrrolo[2,3-d]pyrimidin-7-yl)-5-((((3-methyl-5-phenylisoxazol-4-yl)methyl)thio)methyl)tetrahydrofuran-3,4-diol] | 100 to 500 |
| Cc1noc(-c2ccccc2)c1CSC[C@H]1O[C@@H](n2cc(Sc3ccccc3)c3c(N)ncnc32)[C@H](O)[C@@H]1O [Compound 189b, (2R,3R,4S,5S)-2-(4-Amino-5-(phenylthio)-7H-pyrrolo[2,3-d]pyrimidin-7-yl)-5-((((3-methyl-5-phenylisoxazol-4-yl)methyl)thio)methyl)tetrahydrofuran-3,4-diol] | 30 to 100 |
| Cc1noc(-c2ccccc2)c1CSC[C@H]1O[C@@H](n2ccc3c(N)ncnc32)[C@H](O)[C@@H]1O [Compound 47c, (2R,3R,4S,5S)-2-(4-Amino-7H-pyrrolo[2,3-d]pyrimidin-7-yl)-5-((((3-methyl-5-phenylisoxazol-4-yl)methyl)thio)methyl)tetrahydrofuran-3,4-diol] | 30 to 100 |
| CC(C)c1onc(-c2ccccc2)c1CSC[C@H]1O[C@@H](n2ccc3c(N)ncnc32)[C@H](O)[C@@H]1O [Compound 107c, (2R,3R,4S,5S)-2-(4-Amino-7H-pyrrolo[2,3-d]pyrimidin-7-yl)-5-((((5-isopropyl-3-phenylisoxazol-4-yl)methyl)thio)methyl)tetrahydrofuran-3,4-diol] | 500 to 2000 |
| Cc1noc(-c2ccccc2)c1CSC[C@H]1O[C@@H](n2cc(-c3ccc(C(F)(F)F)cc3)c3c(N)ncnc32)[C@H](O)[C@@H]1O [Compound 145b] | 100 to 500 |
| Cc1noc(-c2ccccc2)c1CSC[C@H]1O[C@@H](n2cc(C#Cc3cnc(N)nc3)c3c(N)ncnc32)[C@H](O)[C@@H]1O [Compound 174b, (2R,3R,4S,5S)-2-(4-Amino-5-((2-aminopyrimidin-5-yl)ethynyl)-7H-pyrrolo[2,3-d]pyrimidin-7-yl)-5-((((3-methyl-5-phenylisoxazol-4-yl)methyl)thio)methyl)tetrahydrofuran-3,4-diol] | 30 to 100 |
| Cc1nsc(-c2ccccc2)c1CSC[C@H]1O[C@@H](n2cc(-c3ccc(C#N)cc3)c3c(N)ncnc32)[C@H](O)[C@@H]1O [Compound 231b, 4-(4-Amino-7-((2R,3R,4S,5S)-3,4-dihydroxy-5-((((3-methyl-5-phenylisothiazol-4-yl)methyl)thio)methyl)tetrahydrofuran-2-yl)-7H-pyrrolo[2,3-d]pyrimidin-5-yl)benzonitrile] | 100 to 500 |
| Cc1onc(-c2ccccc2)c1CSC[C@H]1O[C@@H](n2ccc3c(N)ncnc32)[C@H](O)[C@@H]1O [Compound 48c, (2R,3R,4S,5S)-2-(4-Amino-7H-pyrrolo[2,3-d]pyrimidin-7-yl)-5-((((5-methyl-3-phenylisoxazol-4-yl)methyl)thio)methyl)tetrahydrofuran-3,4-diol] | 100 to 500 |
| Cc1noc(-c2ccccc2)c1CSC[C@H]1O[C@@H](n2cc(CCCC#N)c3c(N)ncnc32)[C@H](O)[C@@H]1O [Compound 137b, 4-(4-Amino-7-((2R,3R,4S,5S)-3,4-dihydroxy-5-((((3-methyl-5-phenylisoxazol-4-yl)methyl)thio)methyl)tetrahydrofuran-2-yl)-7H-pyrrolo[2,3-d]pyrimidin-5-yl)butanenitrile] | 10 to 30 |
| Nc1ncnc2c1ccn2[C@@H]1O[C@H](CSCc2c(-c3ccccc3)noc2-c2ccccc2)[C@@H](O)[C@H]1O [Compound 109c, (2R,3R,4S,5S)-2-(4-Amino-7H-pyrrolo[2,3-d]pyrimidin-7-yl)-5-((((3,5-diphenylisoxazol-4-yl)methyl)thio)methyl)tetrahydrofuran-3,4-diol] | 100 to 500 |
